Results: US20110173718A1, “HERBICIDE TOLERANT PLANTS” (SYNGENTA CROP PROTECTION, INC., priority 2008, published 2011)

Legend:
Chlamydomonas HST = target: T1, Chlamydomonas HST (Chlamydomonas reinhardtii, UniProt A1JHN0); experiment: HST assay (TLC, MFBQ formed), recombinant Chlamydomonas HST in E. coli membranes; assay type: biochemical; conditions: 25 ppm, TLC, estimated amount of MFBQ formed, relative to controls; for inhibition at 25 ppm: read-out: Chlamydomonas. HST % I at 25 ppm
T1 construct: GST (N); made in house; host or cells: E. coli (BL21A1 / BL21DE3), membrane fraction
T1 sequence (A1JHN0 51-370): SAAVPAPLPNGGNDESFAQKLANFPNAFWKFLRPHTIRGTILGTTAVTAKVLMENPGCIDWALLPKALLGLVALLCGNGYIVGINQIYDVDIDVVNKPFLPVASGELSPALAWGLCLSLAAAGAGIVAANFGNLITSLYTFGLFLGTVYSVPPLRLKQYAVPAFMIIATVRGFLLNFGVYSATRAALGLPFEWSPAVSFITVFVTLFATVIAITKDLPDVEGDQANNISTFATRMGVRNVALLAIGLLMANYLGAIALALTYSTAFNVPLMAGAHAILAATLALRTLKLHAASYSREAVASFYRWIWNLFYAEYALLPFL
Method: Alternatively, Arabidopsis and Chlamydomonas mature HST coding sequences are cloned as GST N-terminal fusion enzymes and expressed in E. coli.
E. coli. BL21A1 cells expressing mature Arabidopsis or Chlamydonionas HST as a GST N-terminal fusion proteins are grown, harvested, broken and membrane fractions expressing HST produced.
For example, 1 ng of recombinant DNA is used to transform BL21DE3 cells to obtain a plateful of individual colonies. One of these colonies is picked and used to inoculate an overnight culture of 100 ml of Luria Broth (LB) supplemented with 50 ug/ml of kanamycin at final concentration, grown at 37° C. with shaking at 220 rpm. Next morning, 10 mls of the overnight culture is used to inoculate 11 of fresh sterile LB supplemented with 50 ug/ml of kanamycin at final concentration, grown at 37° C. with shaking at 220 rpm until the OD reached 0.6 at 600 nm, induced with the addition of 0.1 mM IPTG and left to induce at 15° C. overnight. The cells are harvested by centrifugation at 4600 rpm for 10 min at 4° C. and the pellet stored at −80° C. […] E. coli cell pellet is then resuspended in 25 ml of 50 mM Tris, pH 7.5 supplemented with Roche EDTA-free protease inhibitor tablet (one tablet in 200 mls of buffer). 10 ml of cells are lysed by sonication on ice. The resultant lysed cells are centrifuged at 3000 g for 10 min to pellet the cell nuclei/debris etc. 10 mls of supernatant is aspirated and centrifuged at 150,000 g for 60 min at 4° C. The pellet containing the membranes is resuspended in 2 ml of the above buffer. These samples are stored as 100 ul aliquots at −80° C., after being diluted with addition of glycerol to 50% v/v.
(§1) Prenyltransferase (HST) activities are measured by determining the prenylation rates of [U—^14C]homogentisate using farnesyl diphosphate (FDP) as prenyl donor. ^14C homogentisate is prepared from ^14C tyrosine using L amino acid oxidase and HPPD. For inhibitor testing, compounds are dissolved in dimethylsulfoxide (DMSO). DMSO added at up to 2% v/v has no effect on assays. Control assays contain DMSO at the same concentration as in inhibitor containing assays.
The recombinant Chlamydomonas HST expressed in E. coli membranes is assayed in standard reaction mixtures with 200 μM FDP and 100 μM ^14C-homogentisate (40 dpm/pmol) in 50 mM Tricine-NaOH pH 8.5, 20 mM MgCl2. Assays are started with the addition of enzyme and run for ˜20 min at 28° C.
Recombinant Arabidopsis and Rice HSTs are expressed in insect cells. Assays are run as for Chlamydomonas HST except that assay temperature is 27° C. Assays are stopped with 300 ul of solvent mix (1:2, Chloroform:Methanol) and 100 ul of 0.5% NaCl, agitated/mixed and spun at 13,000 rpm in a benchtop eppendorf centrifuge for 5 minutes. 80 ul of the lower phase extract is loaded onto a TLC plate (silica Gel 60, 20 cm×20 cm) FLA3000 system and run for 35 minutes in dichloromethane. The radioactivity is quantified using a Fuji Phosphoimager and band intensity integrated as quantitative measure of product amount. The bands corresponding to oxidised and reduced 2-methyl-6-farnesyl-1,4-benzoquinol (MFBQ) are identified and the total of the two (oxidised and reduced) band intensities is calculated in order to estimate the total amount of MFBQ product formation. Specific activities of 8 pmol MFBQ min^−1 mg^−1 protein (23 pmol) and 7 pmol MFBQ min^−1 mg^−1 protein (14 pmol) are, for example, estimated for the GST-fusion truncated Arabidopsis HST gene (SEQ ID # 3) expressed in membranes from insect cells 4 days and 5 days after transfection respectively. Similar results are noted from past literature on E. coli expressed Arabidopsis HST. Activity from the insect cell expressed GST-fusion truncated rice HST (SEQ ID# 4) is similar. Expression of the non-truncated HST coding sequences as GST fusions also gives HST activity. […]

[1] = test system: HST in spinach chloroplast extract; experiment: HST assay (TLC, MFBQ formed), spinach chloroplast extract; assay type: biochemical; conditions: 25 ppm; TLC, estimated amount of MFBQ formed, relative to controls
Method: HST enzyme preparations for assay are also prepared directly from fresh plant material. For example HST enzyme preparations are from spinach. In the first step intact spinach chloroplasts are prepared from two lots of 500 g of fresh baby spinach leaves (e.g from the salad section of the local supermarket). Prepacked spinach is usually already washed, but if buying loose leaves these must be rinsed in water before proceeding. Stalks, large leaves and mid-ribs are removed. Each 500 g lot of leaves is added to 1.5 l of ‘Grinding medium’ in a 2 L plastic beaker. Grinding medium is cold (4° C.) 50 mM Tricine/NaOH buffer at pH 7.1 containing 330 mM glucose, 2 mM sodium isoascorbate, 5 mM MgCl2 and 0.1% bovine serum albumen The beaker, kept at 4° C., is placed under a Polytron 6000 blender, fitted with a 1.5″cutting probe and the mixture blended in short bursts of 5-8 sec up to 8-10K rpm until all the leaves are macerated. The homogenate is filtered into a 5 L beaker (embedded in an ice bucket) through four layers of muslin, and two layers of 50μ mesh nylon cloth. The filtrate is transferred to 250 ml buckets of a Beckman GS-6 centrifuge and spun at […] (3020 rpm) for 2 min at 4° C. The supernatant is drained away and discarded to leave a sediment of chloroplasts. Chloroplasts are resuspended in a few ml of cold resuspension medium by gentle swirling and gentle use of a quill brush soaked in resuspension medium. Resuspension medium is 50 mM Hepes/KOH pH 7.8 containing 330 mM sorbitol, 2 mM EDTA, 5 mM KH2PO4, 2 mM MgCl2 and 0.1% bovine serum albumen at 4° C. The chloroplasts are resuspended in 5-10 ml of resuspension buffer, recentrifuged down and resuspended again in order to wash them. The chloroplasts are then once again centrifuged down and then broken by resuspension in about 5 ml of 50 mM Tricine-NaOH pH 7.8 to a protein concentration of about 40 mg/ml. The solution is stored frozen at −80° C. in aliquots. This resuspension is defrosted and used directly in HST activity assays. Alternatively, chloroplasts are prepared resuspended in 50 mM Tris/HCl buffer at pH 7.8 containing 330 mM sorbitol (alternative resuspension buffer) and layered on top of a percol gradient (comprising the same buffer containing 45% percol), spun down, the intact chloroplast fraction taken and washed 2 or 3 times in the alternative resuspension buffer and then spun down again, resuspended in breaking buffer (without sorbitol), flash frozen and stored in aliquots at −80° C.
as §1
Assays using spinach chloroplast extracts (100 μl final volume) contain up to 2 mg of chloroplast protein, 50 mM Tricine-NaOH pH 8.5, 50 mM MgCl2, 200 μM farnesyl diphosphate (FDP) and 26 μM ^14C-homogentisate (167 dpm/pmol). Assays are run for about an hour at 28° C. […] Lipophilic reactions products are extracted and analyzed essentially as described in the literature.
Using the above assays percentage inhibition of the amount of MFBQ formed at a range of doses of inhibitors relative to the control amount obtained with no inhibitor present is reported (Table 1). The better inhibitors give greater percentage inhibition at lower doses.

In the case of Oc1c(Cl)c(Cl)nc(Cl)c1Cl [Compound 1.2], the inhibition at 25 ppm (Chlamydomonas HST) was 70% and the “Spinach chloroplast extract % I at 25 ppm” value [1] was 80%.

CCc1cc(CC)c(-c2c(O)c3nccnc3[nH]c2=O)c(CC)c1 [Compound 2.10] was tested, and the “Chlamydomonas. HST % I at 25 ppm” value (Chlamydomonas HST) was 50% and the “Spinach chloroplast extract % I at 25 ppm” value [1] was 0%.

In the case of COc1nc(C)nc(NC(=O)NS(=O)(=O)c2ccccc2Cl)n1 [Chlorsulfuron, reference compound], the inhibition at 25 ppm (Chlamydomonas HST) was 0% and the “Spinach chloroplast extract % I at 25 ppm” value [1] was 0%.

For Oc1c(F)c(F)nc(F)c1Br [Compound 1.3], the inhibition at 25 ppm (Chlamydomonas HST) was 55% and the “Spinach chloroplast extract % I at 25 ppm” value [1] was 65%.

With O=S1(=O)C(c2c(Cl)cccc2C(F)(F)F)=C(O)c2nccnc2N1CC(F)F [Compound 3.3] the “Chlamydomonas. HST % I at 25 ppm” value (Chlamydomonas HST) was 20% and the “Spinach chloroplast extract % I at 25 ppm” value [1] was 35%.

With CN1c2nccnc2C(O)=C(c2ccc(Cl)cc2Cl)S1(=O)=O [Compound 3.2] the “Chlamydomonas. HST % I at 25 ppm” value (Chlamydomonas HST) was 0% and the “Spinach chloroplast extract % I at 25 ppm” value [1] was 15%.

For O=S1(=O)C(c2c(Cl)ccc(Cl)c2Cl)=C(O)c2nccnc2N1CC(F)F [Compound 3.4], the “Chlamydomonas. HST % I at 25 ppm” value (Chlamydomonas HST) was 50% and the “Spinach chloroplast extract % I at 25 ppm” value [1] was 40%.

CCN1c2nccnc2C(O)=C(c2c(Cl)cccc2C(F)(F)F)S1(=O)=O [Compound 3.1] was tested, and the “Chlamydomonas. HST % I at 25 ppm” value (Chlamydomonas HST) was 20% and the “Spinach chloroplast extract % I at 25 ppm” value [1] was 20%.

With Oc1c(Br)c(F)nc(F)c1Br [Compound 1.4] the inhibition at 25 ppm (Chlamydomonas HST) was 65% and the “Spinach chloroplast extract % I at 25 ppm” value [1] was 75%.

O=c1c(-c2c(Cl)cncc2Cl)c(O)c2nccnc2n1CC(F)F [Compound 5.1] was tested, and the “Chlamydomonas. HST % I at 25 ppm” value (Chlamydomonas HST) was 20% and the “Spinach chloroplast extract % I at 25 ppm” value [1] was 10%.

With O=c1[nH]c2nccnc2c(O)c1-c1ccccc1OC(F)(F)F [Compound 2.12] the “Chlamydomonas. HST % I at 25 ppm” value (Chlamydomonas HST) was 0% and the “Spinach chloroplast extract % I at 25 ppm” value [1] was 0%.
